The structures appear in SMILES notation.

In the assay the target is T1, S1P5 receptors (Homo sapiens, UniProt Q9H228).
T1 construct: expressed in transfected cells; host or cells: CHO cells (membranes)
T1 sequence (Q9H228 whole entry): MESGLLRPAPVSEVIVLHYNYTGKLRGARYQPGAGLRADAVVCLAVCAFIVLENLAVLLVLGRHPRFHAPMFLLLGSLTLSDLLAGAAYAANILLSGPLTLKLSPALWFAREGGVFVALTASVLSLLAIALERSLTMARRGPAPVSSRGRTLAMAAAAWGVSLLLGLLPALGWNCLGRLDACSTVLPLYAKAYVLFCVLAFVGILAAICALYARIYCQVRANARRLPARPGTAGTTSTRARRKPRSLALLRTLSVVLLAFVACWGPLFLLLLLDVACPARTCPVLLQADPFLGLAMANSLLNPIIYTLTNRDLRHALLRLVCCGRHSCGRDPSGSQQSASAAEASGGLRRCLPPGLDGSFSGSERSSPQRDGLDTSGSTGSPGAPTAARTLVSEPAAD
Put plainly: [35S]-GTPγS binding assay on CHO-S1P5 membranes (S1P5 agonism). To be noted: membranes of CHO cells expressing recombinant S1P5; measure of S1P5 agonism. Format: biochemical. Here is the method: CHO cells expressing recombinant S1P5 receptors were cultured in 500 cm^2 culture trays and, once confluent, rinsed and detached with cell-lifting buffer (10 mM HEPES, 154 mM NaCl, 6.85 mM EDTA, pH 7.4). Cells were then pelleted by centrifugation, resuspended, and homogenized in membrane preparation buffer (10 mM HEPES and 10 mM EDTA, pH 7.4) using a Polytron PT 1200E homogenizer (Kinematica, Luzern, Switzerland). Cellular proteins were pelleted by centrifugation at 48,000×g at 4° C. for 30 minutes. The resulting supernatant was discarded, and the pellet was re-suspended again in membrane preparation buffer, homogenized for a second time, and then centrifuged again as described above. The final cellular protein pellet was suspended in ice cold resuspension buffer (10 mM HEPES and 0.1 mM EDTA, pH 7.4), divided into aliquots, and stored at −80° C. until use.
Functional binding assays for [^35S]-GTPγS were performed in 96-well non-binding surface plates with a final volume of 200 μL. The test compounds were serially diluted in DMSO and added to assay plates using a Tecan D300E digital printer with a total volume of 0.4 μL. The control sphingosine-1-phosphate (SIP) was prepared separately by preparing a 400 µM stock solution from a 100 nmol pellet of S1P in 10 mM Na2CO3 with 2% β-cyclodextrin. The serial dilution of S1P was done using complete assay buffer (20 mM HEPES, 10 mM MgCl2, 100 mM NaCl, 1 mM EDTA, 0.1% fatty acid free bovine serum albumin (BSA), and 30 μg/mL saponin, pH 7.4) and transferred to wells already containing 0.4 μL DMSO. All the wells were then loaded to a total volume of 40 μL of complete assay buffer, except the non-specific binding (NSB) wells. For NSB wells, 40 μL/well of 50 μM GTPγS (Sigma Aldrich, cat #G8634, St. Louis, MO) was added to wells containing 0.4 μL of DMSO. The assay was started by the addition of 120 μL/well of CHO-SIP receptor membrane solution containing 40 μg/mL of membrane protein, 16.67 μM guanosine diphosphate (GDP; Sigma Aldrich, cat #G7127, St. Louis, MO), and 2.5 mg/mL of WGA PVT SPA beads in complete buffer. Assay plates were then sealed and incubated at room temperature with gentle agitation for 30 minutes. Next, 40 μL/well of 1 nM of [^35S]-GTPγS (PerkinElmer, cat #NEG030X^250UC, Waltham, MA) in basic assay buffer (20 mM HEPES, 10 mM MgCl2, 100 mM NaCl, and 1 mM EDTA, pH7.4) was added to the assay plates to yield a final concentration of […] and the plates were further incubated for 40 minutes at room temperature with gentle agitation. The assay was terminated by centrifugation of the plates at 1000 rpm for 3 minutes using an Eppendorf 5810R centrifuge (Eppendorf, Hamburg, Germany) and G protein bound radioactivity was quantitated using a MicroBeta2 microplate scintillation counter (PerkinElmer, Waltham, MA). As G protein bound radioactivity directly correlates to receptor activation and coupling to the G protein, this assay is a measure of S1P5 agonism.
For orientation: GTPγS is a poorly hydrolysed GTP analogue; its binding reports G protein activation.
Consider `Cc1c(-c2ccc(C3CC3)c(Cl)c2)cc2c(c1C)C(N1CC(C)(O)C1)CC2` (single isomer, unassigned) [Compound 27b, 1-(5-(3-chloro-4-cyclopropylphenyl)-6,7-dimethyl-2,3-dihydro-1H-inden-1-yl)-3-methylazetidin-3-ol], for which the concentration giving a half-maximal response (EC50) is 10 to 100 nM. As for `Cc1cc(C#Cc2cccc(F)c2)cc2c1C(N1CC(C)(O)C1)CC2` (single isomer, unassigned) [Compound 13b, 1-[5-[2-(3-fluorophenyl)ethynyl]-7-methyl-indan-1-yl]-3-methyl-azetidin-3-ol], the EC50 is 10 to 100 nM. On to `Cc1c(C#Cc2cccc(F)c2)ccc2c1CCC2N1CC(C)(O)C1` (single isomer, unassigned) [Compound 17b, 1-[5-[2-(3-fluorophenyl)ethynyl]-4-methyl-indan-1-yl]-3-methyl-azetidin-3-ol], for which the 50% effective concentration (EC50) is 10 to 100 nM. Consider `CC1(O)CCN(Cc2ccc(C3CN(c4c(Cl)cccc4Cl)C3)cc2)CC1` [Compound 30, 1-(4-(1-(2,6-dichlorophenyl)azetidin-3-yl)benzyl)-4-methylpiperidin-4-ol], for which the EC50 was 1000 to 10000 nM. As for `CC1(O)CN(C2CCc3cc(-c4ccc(C5CC5)c(Cl)c4)ccc32)C1` (single isomer, unassigned) [Compound 5b, 1-[5-(3-chloro-4-cyclopropyl-phenyl)indan-1-yl]-3-methyl-azetidin-3-ol], the figure is 10 to 100 nM. As for `CC1(O)CN(C2CCc3cc(-c4ccc(C5CC5)c(Cl)c4)ccc32)C1` (single isomer, unassigned) [Compound 5a, 1-[5-(3-chloro-4-cyclopropyl-phenyl)indan-1-yl]-3-methyl-azetidin-3-ol], the figure is 10 to 100 nM; as for `CC1(O)CCN(Cc2ccc(N3CC(c4c(Cl)cccc4Cl)C3)cc2)CC1` [Compound 32, 1-(4-(3-(2,6-dichlorophenyl)azetidin-1-yl)benzyl)-4-methylpiperidin-4-ol], 1000 to 10000 nM. In the case of `Cc1cc(C2CN(c3c(Cl)cccc3Cl)C2)cc(C)c1CN1CC(C)(O)C1` [Compound 35, 1-[[4-[1-(2,6-dichlorophenyl)azetidin-3-yl]-2,6-dimethyl-phenyl]methyl]-3-methyl-azetidin-3-ol], the EC50 lay within 10 to 100 nM.

Take `CC1(O)CN(C2CCc3cc(C#Cc4ccccc4F)ccc32)C1` (single isomer, unassigned) [Compound 1b, 1-[5-[2-(2-fluorophenyl)ethynyl]indan-1-yl]-3-methyl-azetidin-3-ol]: the EC50 is 10 to 100 nM. Consider `Cc1c(OCc2c(Cl)cccc2Cl)ccc2c1CCC2NCC(C)(C)O` (single isomer, unassigned) [Compound 20a, 1-((5-((2,6-dichlorobenzyl)oxy)-4-methyl-2,3-dihydro-1H-inden-1-yl)amino)-2-methylpropan-2-ol], for which the concentration giving a half-maximal response (EC50) is 10 to 100 nM.

For the compound `Cc1cc2c(c(C)c1-c1ccc(C3CC3)c(Cl)c1)CCC2N1CC(C)(O)C1` (single isomer, unassigned) [Compound 25a, 1-(5-(3-chloro-4-cyclopropylphenyl)-4,6-dimethyl-2,3-dihydro-1H-inden-1-yl)-3-methylazetidin-3-ol], the EC50 is 1 to 10 nM.

For `CC1(O)CN(Cc2ccc(N3CC(c4c(Cl)cccc4Cl)C3)cc2)C1` [Compound 33, 1-(4-(3-(2,6-dichlorophenyl)azetidin-1-yl)benzyl)-3-methylazetidin-3-ol], the EC50 fell in the range of 100 to 1000 nM.

Turning to `Cc1cc(C2CN(c3c(Cl)cccc3Cl)C2)c(C)cc1CN1CC(C)(O)C1` [Compound 56, 1-(4-(1-(2,6-dichlorophenyl)azetidin-3-yl)-2,5-dimethylbenzyl)-3-methylazetidin-3-ol], the EC50 fell in the range of 10 to 100 nM. `CC1(O)CN(Cc2ccc(C#Cc3c(F)cccc3F)cc2)C1` [Compound 28, 1-(4-((2,6-difluoro-phenyl)ethynyl)benzyl)-3-methylazetidin-3-ol]: the concentration giving a half-maximal response (EC50) lay within 100 to 1000 nM. As for `Cc1cc(C#Cc2cccc(F)c2)cc2c1C(N1CC(C)(O)C1)CC2` (single isomer, unassigned) [Compound 13a, 1-[5-[2-(3-fluorophenyl)ethynyl]-7-methyl-indan-1-yl]-3-methyl-azetidin-3-ol], the figure is 10 to 100 nM; as for `Cc1cc(C2CN(c3cccc(F)c3)C2)cc(C)c1CN1CC(C)(O)C1` [Compound 45, 1-(4-(1-(3-fluorophenyl)azetidin-3-yl)-2,6-dimethylbenzyl)-3-methylazetidin-3-ol], 1000 to 10000 nM. As for `Cc1cc2c(cc1CCc1c(Cl)cccc1Cl)CCC2N1CC(C)(O)C1` (single isomer, unassigned) [Compound 23a, 1-[5-[2-(2,6-dichlorophenyl)ethyl]-6-methyl-indan-1-yl]-3-methyl-azetidin-3-ol], the EC50 was in the range of 10 to 100 nM. For `Cc1cc(-c2ccc(C3CC3)c(Cl)c2)c(C)c2c1C(N1CC(C)(O)C1)CC2` (single isomer, unassigned) [Compound 26b, 1-[5-(3-chloro-4-cyclopropyl-phenyl)-4,7-dimethyl-indan-1-yl]-3-methyl-azetidin-3-ol], the EC50 is 1 to 10 nM. On to `Cc1cc(OCc2c(Cl)cccc2Cl)cc2c1C(N1CC(C)(O)C1)CC2` (single isomer, unassigned) [Compound 15a, 1-[5-[(2,6-dichlorophenyl)methoxy]-7-methyl-indan-1-yl]-3-methyl-azetidin-3-ol], for which the EC50 was in the range of 1 to 10 nM. For the compound `Cc1cc(N2CC(c3c(Cl)cccc3Cl)C2)c(C)cc1CN1CC(C)(O)C1` [Compound 62, 1-(4-(3-(2,6-dichlorophenyl)azetidin-1-yl)-2,5-dimethylbenzyl)-3-methylazetidin-3-ol], the EC50 was 1 to 10 nM. `Cc1cc(C2CN(c3c(Cl)cccc3Cl)C2)cc(C)c1CN1CCC(C)(O)CC1` [Compound 34, 1-(4-(1-(2,6-dichlorophenyl)azetidin-3-yl)-2,6-dimethylbenzyl)-4-methylpiperidin-4-ol]: the EC50 was 100 to 1000 nM.

Turning to `CC1(O)CN(Cc2ccc(N3CC(c4c(Cl)cccc4Cl)C3)c(F)c2)C1` [Compound 67, 1-(4-(3-(2,6-dichlorophenyl)azetidin-1-yl)-3-fluorobenzyl)-3-methylazetidin-3-ol], the half-maximal effective concentration (EC50) fell in the range of 10 to 100 nM. For the compound `CC1(O)CN(C2CCc3cc(-c4ccc(C5CC5)c(F)c4)ccc32)C1` (single isomer, unassigned) [Compound 4b, 1-(5-(4-cyclopropyl-3-fluorophenyl)-2,3-dihydro-1H-inden-1-yl)-3-methyl azetidin-3-ol], the EC50 fell in the range of 100 to 1000 nM. As to `CC1(O)CCN(C2CCc3cc(-c4ccc(C5CC5)c(Cl)c4)ccc32)C1` (centres unmarked) [Compound 7, 1-(5-(3-chloro-4-cyclopropylphenyl)-2,3-dihydro-1H-inden-1-yl)-3-methylpyrrolidin-3-ol], the EC50 was in the range of 100 to 1000 nM.

`CC1(O)CN(Cc2ccc(C3CN(c4c(Cl)cccc4Cl)C3)cc2F)C1` [Compound 61, 1-(4-(1-(2,6-dichlorophenyl)azetidin-3-yl)-2-fluorobenzyl)-3-methylazetidin-3-ol]: the EC50 is 100 to 1000 nM. As for `CC1(O)CN(C2CCc3cc(OCc4c(Cl)cccc4Cl)ccc32)C1` (single isomer, unassigned) [Compound 3a, 1-(5-((2,6-dichlorobenzyl)oxy)-2,3-dihydro-1H-inden-1-yl)-3-methylazetidin-3-ol], the figure is 1 to 10 nM; as for `CC1(O)CN(Cc2ccc(C3CN(c4c(Cl)cccc4Cl)C3)cn2)C1` [Compound 59, 1-((5-(1-(2,6-dichlorophenyl)azetidin-3-yl)pyridin-2-yl)methyl)-3-methylazetidin-3-ol], 100 to 1000 nM.

Take `Cc1cc2c(c(C)c1-c1ccc(C3CC3)c(Cl)c1)CCC2N1CC(C)(O)C1` (single isomer, unassigned) [Compound 25b, 1-(5-(3-chloro-4-cyclopropylphenyl)-4,6-dimethyl-2,3-dihydro-1H-inden-1-yl)-3-methylazetidin-3-ol]: the concentration for a half-maximal effect (EC50) lay in the range of 1 to 10 nM.

As for `Cc1cc2c(cc1-c1ccc(C3CC3)c(Cl)c1)CCC2N1CC(C)(O)C1` (single isomer, unassigned) [Compound 21a, 1-[5-(3-chloro-4-cyclopropyl-phenyl)-6-methyl-indan-1-yl]-3-methyl-azetidin-3-ol], the EC50 lay within 10 to 100 nM.

In general, EC50 refers to the midpoint of the concentration-response curve.

For the origin of these results see US20260022094A1, “Compounds for the Treatment of Neurodegenerative Diseases” (Celgene Corporation, priority 2022, published 2026).
